In patent US12247045B2, “MAP4K4 inhibitors” (Imperial College Innovations Limited, priority 2018, dated 2025) one finds IC50 data, which are given here for 63 compounds.

T1 sequence (O95819 25-289 limits assumed): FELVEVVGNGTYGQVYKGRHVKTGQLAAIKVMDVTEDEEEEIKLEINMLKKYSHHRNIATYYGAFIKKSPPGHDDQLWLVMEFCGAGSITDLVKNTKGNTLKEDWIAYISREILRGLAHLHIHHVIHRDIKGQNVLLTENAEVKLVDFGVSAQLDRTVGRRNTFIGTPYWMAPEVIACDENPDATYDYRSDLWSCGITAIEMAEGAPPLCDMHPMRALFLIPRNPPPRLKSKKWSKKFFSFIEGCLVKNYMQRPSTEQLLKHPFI

The assay concerns the target T1, human MAP4K4 kinase domain (Homo sapiens, UniProt O95819).
T1 construct: 0.5 nM human MAP4K4 kinase domain (Invitrogen); purchased Invitrogen
Kind of assay: MAP4K4 kinase activity, CisBio HTRF Transcreener ADP assay. The class given is biochemical. The conditions noted are these: IC50 category; ATP at Km (10 μM), 0.5 nM kinase domain, 2 h; read-out: MAP4K4. An excerpt: Compounds of the present invention were screened for their inhibitory activity against MAP4K4, versus selected off-target hits found with early members of this chemical series. MAP4K4 kinase activity was monitored using the CisBio HTRF Transcreener ADP assay, a competitive immunoassay with a reproducible Z′>0.6. In the detection step, endogenous ADP and d2-labeled ADP compete for binding an anti-ADP monoclonal antibody labelled with Eu^3+ cryptate. A ratiometric fluorescent read-out is used at 665 and 620 nm. Reactions were performed in the presence of 1% DMSO with ATP added at Km (10 μM), 0.5 nM human MAP4K4 kinase domain (Invitrogen), 1 μM biotin-myelin basic protein as substrate (Invitrogen), and extension of reaction time to 2 h. Assays were run in Greiner low volume plates with a final reaction volume of 10 μl. The MAP4K4 inhibition data are provided in Table 41 below for selected compounds of the present invention. The data has been categorised based on the IC50 value of the compound as “A”, “B” or “C”. IC50: A≤100 nM; 100 nM<B≤1 μM; 1 μM<C; nd=not determined.
(In general: In TR-FRET formats the signal depends on donor and acceptor labels being close together.)
Regarding `CC(C)(O)CCOc1ccc(-c2cn(-c3cccnc3)c3nc[nH]c(=O)c23)c(F)c1` [Ex-72], the IC50 is ≤ 100 nM. As for `CC(C)(O)C(O)COc1ccc(-c2cn(-c3cccnc3)c3nc[nH]c(=O)c23)cc1` (stereo not drawn) [Ex-81], the IC50 was ≤ 100 nM. In the case of `N#Cc1cc(-c2cn(-c3ccccc3)c3nc[nH]c(=O)c23)cnc1N1CC[C@@H](O)C1` [Ex-40] it was ≤ 100 nM. As for `CC(=O)N1CC(n2cc(-c3cn(-c4cccnc4)c4nc[nH]c(=O)c34)cn2)C1` [Ex-35], the IC50 lay in the range of 100 to 1000 nM. In the case of `COCCNc1ccc(-c2cn(-c3ccncc3)c3nc[nH]c(=O)c23)cn1` [Ex-14], the IC50 is ≤ 100 nM.

Take `COc1cc(-c2cn(-c3ccccc3)c3c(=O)[nH]cnc23)ccn1` [Ex-127]: the IC50 fell in the range of 100 to 1000 nM.

On to `CNCCC(=O)Nc1ccc(-c2cn(-c3ccncc3)c3nc[nH]c(=O)c23)cc1` [Ex-10], for which the IC50 fell in the range of 100 to 1000 nM. Consider `CC(=O)NC1CC(n2cc(-c3cn(-c4ccccc4)c4nc[nH]c(=O)c34)cn2)C1` (stereo not drawn) [Ex-16], for which the IC50 is ≤ 100 nM. With `CC(C)(O)CCOc1ccc(-c2cn(-c3cncc(F)c3)c3nc[nH]c(=O)c23)cc1` [Ex-84], the IC50 was 100 to 1000 nM.

For the compound `Nc1ccc(-c2cn(-c3ccccc3)c3nc[nH]c(=O)c23)cn1` [Ex-9], the IC50 is ≤ 100 nM. In the case of `Cn1cc(-c2cn(-c3ccccc3)c3c(=O)[nH]cnc23)cn1` [Ex-120] it was 100 to 1000 nM; in that of `CC(=O)OCCn1cc(-c2cn(-c3ccc(F)cc3)c3nc[nH]c(=O)c23)cn1` [Ex-47, 2-(4-(7-(4-fluorophenyl)-4-oxo-4,7-dihydro-3H-pyrrolo[2,3-d]pyrimidin-5-yl)-1H-pyrazol-1-yl)ethyl Acetate], 100 to 1000 nM; in that of `CC(C)(O)CCOc1ccc(-c2cn(-c3cccnc3)c3nc[nH]c(=O)c23)cc1C#N` [Ex-87], ≤ 100 nM. For the compound `O=c1[nH]cnc2c1c(-c1ccc(OCC3(CO)COC3)cc1)cn2-c1cccnc1` [Ex-79], the IC50 was ≤ 100 nM. For `CN(C)CCCOc1ccc(-c2cn(-c3ccccc3)c3c(=O)[nH]cnc23)cn1` [Ex-114, 7-[6-(3-Dimethylamino-propoxy)-pyridin-3-yl]-5-phenyl-3,5-dihydro-pyrrolo[3,2-d]pyrimidin-4-one] the value was 100 to 1000 nM; for `COc1ccc(-c2cn(-c3ccccc3)c3nc[nH]c(=O)c23)cn1` [Ex-18], ≤ 100 nM; for `CC(C)(O)CCOc1ccc(-c2cn(-c3ccc(N)nc3)c3nc[nH]c(=O)c23)cc1` [Ex-96, 7-(6-aminopyridin-3-yl)-5-(4-(3-hydroxy-3-methylbutoxy)phenyl)-3,7-dihydro-4H-pyrrolo[2,3-d]pyrimidin-4-one], ≤ 100 nM. For `O=c1[nH]cnc2c(-c3ccncc3F)cn(-c3ccccc3)c12` [Ex-121] the value was > 1000 nM; for `O=c1[nH]cnc2c1c(-c1cn[nH]c1)cn2-c1ccccc1` [Ex-112, 7-Phenyl-5-(1H-pyrazol-4-yl)-3,7-dihydro-pyrrolo[2,3-d]pyrimidin-4-one], ≤ 100 nM; for `CC(=O)Nc1ccc(-c2cn(-c3ccccc3)c3nc[nH]c(=O)c23)cn1` [Ex-6], ≤ 100 nM. For the compound `O=c1[nH]cnc2c1c(-c1ccc(OCCC3(O)CC3)cc1)cn2-c1cccnc1` [Ex-70], the IC50 was ≤ 100 nM. On to `COCCNc1ccc(-c2cn(-c3cccnc3)c3nc[nH]c(=O)c23)cn1` [Ex-39], for which the IC50 lay within 100 to 1000 nM. For `Cn1cc(-c2cn(-c3ccccc3)c3nc[nH]c(=O)c23)cn1` [Ex-24] the value was ≤ 100 nM; for `O=c1[nH]cnc2c1c(-c1cnn(CCO)c1)cn2-c1ccc(F)cc1` [Ex-55, 7-(4-fluorophenyl)-5-(1-(2-hydroxyethyl)-1H-pyrazol-4-yl)-3,7-dihydro-4H-pyrrolo[2,3-d]pyrimidin-4-one], 100 to 1000 nM; for `O=c1[nH]cnc2c(-c3ccc4[nH]cnc4c3)cn(-c3ccccc3)c12` [Ex-118], 100 to 1000 nM. For the compound `CC(C)(O)CCOc1ccc(-c2cn(-c3ccncc3)c3nc[nH]c(=O)c23)cc1` [Ex-69], the IC50 was ≤ 100 nM.

Turning to `CC(C)(N)COc1ccc(-c2cn(-c3cccnc3)c3nc[nH]c(=O)c23)cc1` [Ex-110], the IC50 lay within 100 to 1000 nM. For `CN(CCO)c1ccc(-c2cn(-c3ccccc3)c3nc[nH]c(=O)c23)cn1` [Ex-52] the value was ≤ 100 nM; for `CC(C)(N)CCOc1ccc(-c2cn(-c3cccnc3)c3nc[nH]c(=O)c23)cc1` [Ex-111], 100 to 1000 nM; for `CC(C)(O)COc1ccc(-c2cn(-c3ccncc3)c3nc[nH]c(=O)c23)cc1` [Ex-68, 5-(4-(2-hydroxy-2methylpropoxy)phenyl)-7-(pyridine-4-yl)-3,7-dihydro-4H-pyrrolo[2,3-d]pyrimidin-4-one], ≤ 100 nM.

For the compound `Nc1ncccc1-c1cn(-c2ccccc2)c2c(=O)[nH]cnc12` [Ex-126], the IC50 is > 1000 nM. In the case of `O=c1[nH]cnc2c1c(-c1ccc(NCCO)nc1)cn2-c1ccccc1` [Ex-48, 5-[6-(2-Hydroxy-ethylamino)-pyridin-3-yl]-7-phenyl-3,7-dihydro-pyrrolo[2,3-d]pyrimidin-4-one] it was ≤ 100 nM; in that of `O=c1[nH]cnc2c1c(-c1cnc(N3CC(O)C3)nc1)cn2-c1cccnc1` [Ex-37], > 1000 nM.

With `CC(=O)N1CC(n2cc(-c3cn(-c4ccncc4)c4nc[nH]c(=O)c34)cn2)C1` [Ex-12], the IC50 lay within 100 to 1000 nM.

Take `O=c1[nH]cnc2c1c(-c1ccccc1)cn2-c1cccnc1` [Ex-1, 5-Phenyl-7-pyridin-3-yl-3,7-dihydro-pyrrolo[2,3-d]pyrimidin-4-one]: the IC50 was in the range of 100 to 1000 nM. Take `O=c1[nH]cnc2c(-c3cnn(CCO)c3)cn(-c3ccccc3)c12` [Ex-123]: the IC50 fell in the range of 100 to 1000 nM.

Regarding `COC(COc1ccc(-c2cn(-c3cccnc3)c3nc[nH]c(=O)c23)cc1)CN1CCOCC1` (stereo not drawn) [Ex-34], the IC50 was ≤ 100 nM. For the compound `O=c1[nH]cnc2c(-c3cncnc3)cn(-c3ccccc3)c12` [Ex-115], the IC50 is > 1000 nM. In the case of `CC(C)(CO)COc1ccc(-c2cn(-c3cccnc3)c3nc[nH]c(=O)c23)cc1` [Ex-92] it was ≤ 100 nM; in that of `COCCOc1ccc(-c2cn(-c3ccncc3)c3nc[nH]c(=O)c23)cn1` [Ex-13], ≤ 100 nM. Take `O=c1[nH]cnc2c1c(-c1cnc(NCCO)nc1)cn2-c1cccnc1` [Ex-45]: the IC50 was in the range of 100 to 1000 nM. In the case of `O=c1[nH]cnc2c1c(-c1ccc(OCC3(CO)COC3)cc1)cn2-c1ccncc1` [Ex-76] it was ≤ 100 nM; in that of `O=c1[nH]cnc2c(-c3ccccc3)cn(-c3cncc(F)c3)c12` [Ex-44], ≤ 100 nM; in that of `Nc1cc(-c2cn(-c3ccccc3)c3nc[nH]c(=O)c23)ccn1` [Ex-8], ≤ 100 nM. Turning to `O=c1[nH]cnc2c1c(-c1cnc(NCCO)nc1)cn2-c1ccccc1` [Ex-49], the IC50 was ≤ 100 nM.

On to `COc1ccc(-n2cc(-c3ccc(OCCC(C)(C)O)cc3)c3c(=O)[nH]cnc32)cn1` [Ex-86], for which the IC50 was ≤ 100 nM. For `O=c1[nH]cnc2c1c(-c1cnc(N3CC(CO)C3)nc1)cn2-c1ccccc1` [Ex-51] the value was 100 to 1000 nM; for `O=c1[nH]cnc2c(-c3ccc(OC4CC4)nc3)cn(-c3ccccc3)c12` [Ex-137, 7-(6-cyclopropoxypyridin-3-yl)-5-phenyl-3,5-dihydro-4H-pyrrolo[3,2-d]pyrimidin-4-one], 100 to 1000 nM. On to `Cn1ccc(-c2cn(-c3ccccc3)c3c(=O)[nH]cnc23)n1` [Ex-122], for which the IC50 is > 1000 nM. In the case of `O=c1[nH]cnc2c1c(-c1ccc(OCCC3(O)COC3)cc1)cn2-c1cccnc1` [Ex-91] it was ≤ 100 nM; in that of `O=c1[nH]cnc2c1c(-c1ccncc1)cn2-c1ccccc1` [Ex-4], ≤ 100 nM; in that of `CC(=O)N1CC(n2cc(-c3cn(-c4cccc(F)c4)c4nc[nH]c(=O)c34)cn2)C1` [Ex-11], ≤ 100 nM. For `O=c1[nH]cnc2c1c(-c1ccn[nH]1)cn2-c1ccccc1` [Ex-57] the value was 100 to 1000 nM; for `COc1ccc(-c2cn(-c3ccccc3)c3nc[nH]c(=O)c23)nc1` [Ex-105], 100 to 1000 nM; for `CC(C)(O)COc1ccc(-c2cn(-c3cc[n+]([O-])cc3)c3nc[nH]c(=O)c23)cc1` [Ex-98], 100 to 1000 nM.

Consider `O=c1[nH]cnc2c1c(-c1ccc(O[C@@H]3CO[C@@H]4[C@H]3OC[C@@H]4O)cc1)cn2-c1cccnc1` [Ex-80], for which the IC50 was ≤ 100 nM.

As for `CC(C)(O)CCOc1ccc(-n2cc(-c3cccnc3)c3nc[nH]c(=O)c32)cc1` [Ex-125, 5-(4-(3-hydroxy-3-methylbutoxy)phenyl)-7-(pyridin-3-yl)-3,5-dihydro-4H-pyrrolo[3,2-d]pyrimidin-4-one], the IC50 is ≤ 100 nM. For `O=c1[nH]cnc2c(-c3ccnnc3)cn(-c3ccccc3)c12` [Ex-116], the IC50 lay within 100 to 1000 nM. For `COCCn1cc(-c2cn(-c3ccncc3)c3nc[nH]c(=O)c23)cn1` [Ex-63] the value was 100 to 1000 nM; for `COCCn1cc(-c2cn(-c3cccnc3)c3nc[nH]c(=O)c23)cn1` [Ex-19], 100 to 1000 nM. For the compound `O=c1[nH]cnc2c1c(-c1cnn(CCCO)c1)cn2-c1ccccc1` [Ex-113, 5-[1-(3-Hydroxy-propyl)-1H-pyrazol-4-yl]-7-phenyl-3,7-dihydro-pyrrolo[2,3-d]pyrimidin-4-one], the IC50 was ≤ 100 nM. In the case of `COc1ccc(-c2cn(-c3ccccc3)c3c(=O)[nH]cnc23)cn1` [Ex-132] it was 100 to 1000 nM; in that of `CNCCn1cc(-c2cn(-c3ccccc3)c3nc[nH]c(=O)c23)cn1` [Ex-109], 100 to 1000 nM.
